{"source": "patent US20220000110A1", "about": "“COMPOSITIONS COMPRISING PYRIDINE CARBOXYLATE HERBICIDES AND CELLULOSE BIOSYNTHESIS INHIBITOR HERBICIDES” (priority 2018, published 2022)", "system": "Matricaria chamomilla (wild chamomile)", "experiment": "Greenhouse postemergence herbicidal effect, visual injury after 20-22 d", "format": "in vivo", "settings": "MATCH", "how_it_was_run": "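Visual injury on a 0–100% scale (0 none, 100 complete kill) relative to solvent-blank-sprayed controls was the read-out. Treatments were two-way herbicide combinations containing safener, sprayed postemergence at 187 L/ha with 1.25% v/v crop oil adjuvant onto plants at the second to third true leaf stage.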"}
{"compound": "N#CCOC(=O)c1nc(-c2ccc3cc[nH]c3c2F)c(F)c(N)c1Cl", "note": "[Compound A, cyanomethyl 4-amino-3-chloro-5-fluoro-6-(7-fluoro-1H-indol-6-yl)pyridine-2-carboxylate]", "values": [{"measurement": "Obs % visual injury", "setting": "Table 3, Compound A 7.5 g/ha", "value": 8, "unit": "%"}, {"measurement": "Obs % visual injury", "setting": "Table 3, Compound A 10 g/ha", "value": 15, "unit": "%"}, {"measurement": "Obs % visual injury", "setting": "Table 3, Compound A 15 g/ha", "value": 10, "unit": "%"}, {"measurement": "Obs % visual injury", "setting": "Table 4, Compound A 7.5 g/ha", "value": 8, "unit": "%"}, {"measurement": "Obs % visual injury", "setting": "Table 4, Compound A 10 g/ha", "value": 15, "unit": "%"}, {"measurement": "Obs % visual injury", "setting": "Table 4, Compound A 15 g/ha", "value": 10, "unit": "%"}]}
